Assay results from patent US7495024B2, “Phenylalkyl N-hydroxyureas for combating atherosclerotic plaque” (VIA Pharmaceuticals, Inc., priority 2006, dated 2009).

Legend:
ApoE-deficient mice = assay: Gross qualitative atherosclerotic lesion analysis of aortas, prevention of plaque formation (Example 1); assay type: in vivo; details: 12-week old ApoE-deficient mice, 28 days
Text: In Examples 1 and 2 knockout mice deficient in producing the protein Apolipoprotein E [apoE] were used. ApoE-deficient mice are known to spontaneously develop atherosclerotic plaque at 12-16 weeks, which process is accelerated by feeding the mice a high fat diet. Because the atherosclerotic lesions found in these mice are histologically similar to those found in humans, the ApoE-deficient mice are used as a model for assessing the effects of a drug on atherosclerotic plaque in humans. This example was carried out on ApoE-deficient knockout mice who were before their normal development of atherosclerotic plaque which occurs in about 12 weeks to determine the effect of compound X i.e. the compound: (N-[3-[5-[(4-fluorophenyl)methyl]-2-thienyl]-1-methyl-2-propynyl]-N-hydroxyurea) on the prevention of plaque formation. Four week old female ApoE knockout mice were fed a high fat diet (21% anhydrous milk fat and 0.15% cholesterol) for a period of eight weeks. […] The results which are given in FIG. 1 were analyzed by one-way analysis of variance (ANOVA) and Student's unpaired t-test comparing each treatment arm to the appropriate control arm.

[1] = test system: patients suffering from Acute Coronary Syndrome (ACS); assay: Randomized, double blind, placebo-controlled study in patients with Acute Coronary Syndrome: biomarkers and MDCT (Example 3); assay type: in vivo, human; details: 25, 50 or 100 mg per day oral
Description: In this study the plaque levels were determined by use of Multidetector (64 slice coronary) Computerized Tomography (MDCT) scan indicative of such plaque in male and female patients suffering from Acute Coronary Syndrome (ACS). The efficacy of this treatment in reducing the effects of cardiovascular disease was determined by the use of biomarkers for this disease. […] At the end of the twenty-four week period the plaque in the patients is analyzed using the Multidetector (64 slice coronary) Computerized Tomography (MDCT) scan. […] Thus, the groups take the following matching capsules at each daily administration of the study medication: • Placebo: two placebo capsules • 25 mg dose: one placebo capsule plus one 25 mg capsule • 50 mg dose: 1 placebo capsule plus one 50 mg capsule • 100 mg dose: two 50 mg capsules The following baseline assessments in each of the patients are made prior to the study: history and complete physical examination; focused physical exam (for signs of bleeding disorder); 12-Lead ECG; measurement of inflammatory biomarkers (LTB4 (ex vivo) measured at trough; LTE4 urine; hsCRP; MPO; MCP1 (CCL2); M-CSF (CSF-1); MIP-2 (Cxcl2); osteopontin (Spp1)); hematology; chemistries; urinalysis; serum pregnancy test for women of childbearing potential; and 64-slice coronary MDCT imaging with contrast. […]

## CC(C#Cc1ccc(Cc2ccc(F)cc2)s1)N(O)C(N)=O (stereo not shown) [compound X, N-[3-[5-[(4-fluorophenyl)methyl]-2-thienyl]-1-methyl-2-propynyl]-N-hydroxyurea]
ApoE-deficient mice; high fat diet, 1, 10 and 50 mg/kg/day oral once daily, vs vehicle
  extent of plaque in the proximal aorta: reductions in the extent of plaque
ApoE-deficient mice; 50 mg/kg/day oral, p<0.03
  reduction of plaque formation in the proximal aorta compared to vehicle: ~40%
[1]; 12 weeks of dosing
  levels of inflammatory biomarkers for cardiovascular disease, percentage of patients vs placebo group: decrease in the levels of inflammatory biomarkers
[1]; 24 weeks of dosing
  density and/or plaque volume of coronary noncalcified plaque index lesions by 64-slice MDCT, percentage of patients vs placebo group: a change in the density and/or plaque volume
